Read-outs that look alike come from different tables or passages of the source.
Experiments:
[1] = target: T1, Recombinant human KIF18A (1-467 His-tagged) protein (Homo sapiens, UniProt Q8NI77); test: KIF18A Enzyme Assay (microtubule-stimulated ATPase activity, ADP-Glo); format: biochemical; conditions: 30 nM KIF18A, 75 μM ATP
T1 construct: Recombinant human KIF18A (1-467 His-tagged) protein; His; made in house
Procedure: KIF18A Enzyme Assay: Microtubule-stimulated ATPase activity assay was used to measure KIF18A enzyme activity after treatment with compound. Compounds were 2-fold serially diluted in DMSO (Sigma Inc) over 22-point concentration range. […] The assay measures ADP formed from the ATPase reaction.
Concentration-response curve-fitting and IC50 determination was performed using Genedata Screener Software (Standard 15.0.1, Genedata Inc) with a four-parameter logistic regression fit model.

[2] = system: OVCAR-8 NCI/ADR-RES cells; test: Nuclear count assay in multidrug resistant cells, with or without P-gp inhibitor; format: cell-based, human; conditions: 4-day NCA; for EC50: Homo sapiens, 96 h, read-out: EC50 (Count POC)
Procedure: Compound was added to the cells with a final volume of 200 μL in complete media containing 0.5% DMSO.
The plates were sealed and incubated for 1 hour at room temperature in the dark. Cells were stored at 4° C. in the dark until data acquisition. […] The Total Valid Object Count was represented as a Count POC (Percentage of DMSO Control) using the following formula:
Briefly, OVCAR-8 cells were seeded in duplicate in a Corning 96-well Flat Clear Bottom Black Polystyrene plates (Corning, N.Y.) in 100 μL of appropriate complete media at the appropriate density and grown for 24 hours. […] After 4 days (96 hours) of treatment, the cells were fixed by removing 100 μL of complete media from each well and replacing it with 100 μL of 2×formaldehyde (final 4%) and incubating the plates for 15 minutes at room temperature. […] The plates were sealed and incubated for 1 hour at room temperature in the dark. Cells were stored at 4° C. in the dark until data acquisition. […] The Total Valid Object Count was represented as a Count POC (Percentage of DMSO Control) using the following formula:
Count POC=(Total Valid Object Count in treated well)[…](Total Valid Object Count in DMSO treated wells)×100
Compound concentration and Count POC values were plotted using GraphPad Prism software (V7.0.4) and curve-fitting was performed with 4-parameter equation (variable slope). The concentration-response curves and standard deviation represent two independent experiments run in duplicate.

[3] = system: human bone marrow mononuclear cells (HBMNC); test: BrdU cell cycle analysis and live cell count in normal cells; format: cell-based
Procedure: (§1) The effect KIF18A inhibitor treatment has on proliferation of normal somatic cells (e.g., not neoplastic cells) was tested by assaying proliferation of human bone marrow mononuclear cells (HBMNCs), primary human foreskin fibroblast cells (hFSF) and human mammary epithelial cells via a 5-bromo-2′-deoxyuridine (BrdU) incorporation assay in which BrdU, an analog of the nucleoside thymidine, is used to identify proliferating cells (Payton et. al., Molecular Cancer Therapeutics, 17(12):2575-85 (2018)). Cells were analyzed on BD LSRFortessa flow cytometer using BD FACSDiva software (BD Biosciences), and post-acquisition data analysis was performed using FSC-Express software (De Novo). The percentage of BrdU positive gated events on the stacked DNA content histograms were reported.
To further examine the effects of KIF18A inhibitor treatment on HBMNC, two normal donors were assessed using the BrdU coupled cell cycle assay and cell count assay (96 hours) was. […] In particular, the amount of BrdU-stained proliferating cells treated with Ispinesib, paclitaxel, or a CDK 4/6 inhibitor (palbociclib) was far less than the amount of vehicle control-treated BrdU-stained cells. […] KIF18A inhibitor treatment was also analyzed for impact on live cell count. After 96 hours, live cells were counted by Vi-CELL XR Cell Viability Analyzer (Beckman Coulter).
To investigate whether KIF18A inhibitors could circumvent this normal cell toxicity barrier, we examined the effects of Compounds C9 and C11 on a panel of cycling normal somatic cell types. First, we treated human bone marrow mononuclear cells (HBMNC) from two normal donors with DMSO, Compound C9 and C11 at 1 μM, ispinesib at 0.05 μM, paclitaxel at 0.05 μM, or palbociclib at 1 μM for 48 h (cell cycle) or 96 h (cell growth).
BrdU and cell cycle analysis. Human bone marrow mononuclear cells (HBMNCs) from two normal donors (#37612, #37534) were cultured for 8 days in defined media as previously described (Payton et al 2018). HBMNCs were seeded in 24-well plate at 1.2×10^6 cells per well in duplicate plates. Cells were treated with DMSO, Compound C9 (1 μM), Compound C11 (1 μM), ispinesib (0.05 μM), paclitaxel ([…]), or palbociclib (1 μM). Cells were collected at 48 h (cell cycle) and 96 h (cell growth). The first set of plates were pulsed with BrdU for 2 h and processing for BrdU cell cycle analysis as previously described (Payton et al 2018). Cells were analyzed on BD LSRFortessa flow cytometer running BD FACSDiva software and post-acquisition data analysis was performed using FSC-Express software. Data was reported for the percentage of BrdU and subG1 gated populations. The second set of plates were collected, and cells counted using Vi-CELL XR Cell Viability Analyzer (Beckman Coulter).

[4] = system: human foreskin fibroblast (hFSF) cells; test: BrdU incorporation assay in normal cells; format: cell-based; conditions: 48 hours
Procedure: as §1

[5] = system: human mammary epithelial cells (HMEC); test: BrdU incorporation assay in normal cells; format: cell-based; conditions: 48 hours
Procedure: as §1

T1 sequence (Q8NI77 1-467): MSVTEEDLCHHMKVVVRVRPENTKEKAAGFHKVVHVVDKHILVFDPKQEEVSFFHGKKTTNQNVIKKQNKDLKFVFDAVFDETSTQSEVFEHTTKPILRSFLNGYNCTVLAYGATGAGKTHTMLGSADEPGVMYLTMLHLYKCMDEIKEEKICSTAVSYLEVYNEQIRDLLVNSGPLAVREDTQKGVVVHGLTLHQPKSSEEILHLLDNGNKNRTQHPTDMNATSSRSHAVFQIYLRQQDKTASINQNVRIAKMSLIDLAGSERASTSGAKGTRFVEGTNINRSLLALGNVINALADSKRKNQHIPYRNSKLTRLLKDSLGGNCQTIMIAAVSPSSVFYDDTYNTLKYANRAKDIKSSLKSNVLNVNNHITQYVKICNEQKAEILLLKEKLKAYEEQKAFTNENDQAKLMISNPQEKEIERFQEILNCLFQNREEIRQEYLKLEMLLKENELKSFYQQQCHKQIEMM
T1 sequence (P02550 whole entry partner): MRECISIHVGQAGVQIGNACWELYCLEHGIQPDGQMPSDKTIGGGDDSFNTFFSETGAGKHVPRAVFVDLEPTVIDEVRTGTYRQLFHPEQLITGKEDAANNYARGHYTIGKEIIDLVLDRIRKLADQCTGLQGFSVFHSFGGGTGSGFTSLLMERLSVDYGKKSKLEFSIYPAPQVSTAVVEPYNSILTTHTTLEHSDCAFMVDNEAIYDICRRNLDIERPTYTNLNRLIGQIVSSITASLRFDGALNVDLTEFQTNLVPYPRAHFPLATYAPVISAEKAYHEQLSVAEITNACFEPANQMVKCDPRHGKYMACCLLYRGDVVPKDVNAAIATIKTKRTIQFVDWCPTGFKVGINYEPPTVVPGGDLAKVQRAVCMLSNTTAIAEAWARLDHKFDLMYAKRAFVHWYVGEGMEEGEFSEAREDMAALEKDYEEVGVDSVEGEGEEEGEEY
T1 sequence (P02554 whole entry partner): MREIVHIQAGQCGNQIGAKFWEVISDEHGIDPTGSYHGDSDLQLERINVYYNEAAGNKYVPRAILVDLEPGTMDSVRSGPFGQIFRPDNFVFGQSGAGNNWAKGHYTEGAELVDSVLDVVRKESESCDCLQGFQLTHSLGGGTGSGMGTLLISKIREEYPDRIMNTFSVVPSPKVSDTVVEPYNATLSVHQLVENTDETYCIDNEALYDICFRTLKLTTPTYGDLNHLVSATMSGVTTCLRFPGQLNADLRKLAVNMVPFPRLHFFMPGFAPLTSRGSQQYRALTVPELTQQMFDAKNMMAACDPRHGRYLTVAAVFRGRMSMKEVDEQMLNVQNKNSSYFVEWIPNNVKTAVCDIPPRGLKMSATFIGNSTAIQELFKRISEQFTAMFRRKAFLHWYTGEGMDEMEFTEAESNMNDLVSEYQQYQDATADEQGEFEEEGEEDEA

Question: With `Cc1cc(NC(=O)c2ccc([S@](=N)(=O)C3CC3)cc2N2CCC3(CC2)CC3)nc(N2CCC(F)(F)CC2)n1` (single isomer, unassigned) [Compound C1, 2-(6-Azaspiro[2.5]octan-6-yl)-4-(R-cyclopropylsulfonimidoyl)-N-(2-(4,4-difluoro-1-piperidinyl)-6-methyl-4-pyrimidinyl)benzamide] as the compound, how does the IC50 [1] read?
Answer: The IC50 was 0.064 µM.

Question: `Cc1cc(NC(=O)c2ccc(S(=N)(=O)C3CC3)cc2N2CCC3(CC2)CC3)nc(N2CCC(F)(F)CC2)n1` (single isomer, unassigned) [Compound C2, 2-(6-azaspiro[2.5]octan-6-yl)-4-(S-cyclopropylsulfonimidoyl)-N-(2-(4,4-difluoro-1-piperidinyl)-6-methyl-4-pyrimidinyl)benzamide] was tested. Which IC50 [1] did it give?
Answer: The IC50 was 0.057 µM.

Question: Which IC50 [1] does the source give for `Cc1cc(NC(=O)c2ccc(NS(=O)(=O)[C@H](C)CO)cc2N2CCC3(CC2)CC3)nc(N2CCC(F)(F)CC2)n1` (single isomer, unassigned) [Compound C5] here?
Answer: The IC50 was 0.062 µM.

Question: `Cc1cc(NC(=O)c2ccc(NS(=O)(=O)[C@@H](C)CO)cc2N2CCC3(CC2)CC3)nc(N2CCC(F)(F)CC2)n1` (single isomer, unassigned) [Compound C6] was tested. Which IC50 [1] did it give?
Answer: The IC50 was 0.07 µM.

Question: With `CC(C)(C)NS(=O)(=O)c1cccc(NC(=O)c2ccc(S(=O)(=O)C3(C)COC3)cc2N2CCC3(CC2)CC3)c1` [Compound C8, N-(3-(N-(tert-Butyl)sulfamoyl)phenyl)-4-((3-methyloxetan-3-yl)sulfonyl)-2-(6-azaspiro[2.5]octan-6-yl)benzamide] as the compound, how does the IC50 [1] read?
Answer: The IC50 was 0.061 µM.

Question: With `CC(C)(C)NS(=O)(=O)c1cccc(NC(=O)c2ccc(NC(C)(C)CO)nc2N2CCC3(CC2)CC3)c1` [Compound C10, N-(3-(N-(tert-Butyl)sulfamoyl)phenyl)-6-((1-hydroxy-2-methylpropan-2-yl)amino)-2-(6-azaspiro[2.5]octan-6-yl)nicotinamide] as the compound, how does the IC50 [1] read?
Answer: Its IC50 is 0.07 µM.

Question: With `CC(=O)O[C@H]1C(=O)[C@@]2(C)[C@H]([C@H](OC(=O)c3ccccc3)[C@]3(O)C[C@H](OC(=O)[C@H](O)[C@@H](NC(=O)c4ccccc4)c4ccccc4)C(C)=C1C3(C)C)[C@]1(OC(C)=O)CO[C@@H]1C[C@@H]2O` [Paclitaxel] as the compound, how does the “fold change in potency in the presence vs in the absence of the P-gp inhibitor” value ([2]; GF120918 1 μM) read?
Answer: Its value is “greater than 500 fold”.

Question: And the EC50 ([2]; absence of the P-gp inhibitor)?
Answer: The EC50 was > 1 µM.

Question: And the EC50 ([2]; presence of P-gp inhibitor GF120918 (1 μM))?
Answer: Its EC50 is 0.0017 µM.

Question: And the “live cell count relative to vehicle control” value [3]?
Answer: The value was “lower cell count”.

Question: Which “live cell count relative to vehicle control” value [3] does the source give for `CC(=O)c1c(C)c2cnc(Nc3ccc(N4CCNCC4)cn3)nc2n(C2CCCC2)c1=O` [Palbociclib] here?
Answer: The value was “lower cell count”.

Question: What about the “BrdU incorporation relative to DMSO treated cells” value [4] of the same compound?
Answer: Its value is “decrease in BrdU incorporation”.

Question: What about the “BrdU incorporation relative to DMSO treated cells” value [5] of the same compound?
Answer: The value was “decrease in BrdU incorporation”.

Source: patent US20230151432A1, “KIF18A INHIBITORS FOR TREATMENT OF NEOPLASTIC DISEASES” (AMGEN INC., priority 2020, published 2023)
